Measured values reported in paper PMC11672400, “Synthesis, Spectroscopic Characterization, Structural Analysis, and Evaluation of Anti-Tumor, Antimicrobial, and Antibiofilm Activities of Halogenoaminopyrazoles Derivatives” (Antibiotics, 2024).
≈ marks a conversion by molar mass, not a printed value. Where two headings read alike, the source gives them in different places.

Tests used:
[1] = test system: Enterococcus faecalis ATCC29212; test: Qualitative evaluation of antimicrobial activity (inhibition zone, spot on agar); format: cell-based; set-up: key: (+) inhibited bacterial growth; (-) did not inhibit bacterial growth; conditions: 0.06 g/2 mL DMSO, 5 µL spot
Method: (§1) For testing the antimicrobial/antibiofilm activity, the concentration of the studied compounds was identical to 0.06 g/2 mL DMSO. 0.5 Standard McFarland suspension was used, which was inoculated onto Mueller Hinton agar plates, (Remel, Lenexa, KS, USA), 5 µL of each compound was spotted and incubated overnight at 37 °C. Antimicrobial activity was observed as zones of inhibition formed around the spot.

[2] = test system: Staphylococcus aureus ATCC25923; test: as above; format: cell-based; set-up: key: (+) inhibited bacterial growth; (-) did not inhibit bacterial growth; conditions: 0.06 g/2 mL DMSO, 5 µL spot
Method: as §1

[3] = test system: Escherichia coli ATCC25922; test: as above; format: cell-based; set-up: key: (+) inhibited bacterial growth; (-) did not inhibit bacterial growth; conditions: 0.06 g/2 mL DMSO, 5 µL spot
Method: as §1

[4] = test system: Pseudomonas aeruginosa ATCC27853; test: as above; format: cell-based; set-up: key: (+) inhibited bacterial growth; (-) did not inhibit bacterial growth; conditions: 0.06 g/2 mL DMSO, 5 µL spot
Method: as §1

[5] = test system: HEp-2 epithelial tumor cells; test: MTT cell viability / anti-tumor activity; conditions: for viability at 3.1 µg/mL / viability at 6.25 µg/mL / viability at 12.5 µg/mL / viability at 25 µg/mL / viability at 50 µg/mL / IC50: Homo sapiens; for viability at 3.1 µg/mL / viability at 6.25 µg/mL / viability at 12.5 µg/mL / viability at 25 µg/mL / viability at 50 µg/mL: read-out: Cell viability on Hep2 cells (%); for IC50: read-out: IC50 µg/mL on HEp-2 Cells 48 h, HEp-2 epithelial tumor cells, MTT, 48 h
Method: The cytotoxicity of the halogenoaminopyrazole derivatives 4a–f and 5a–e was tested on L929 mouse fibroblast cells, and their anti-tumor activity was evaluated on the human carcinoma epithelial cell line HEp-2. The experiments were performed in a concentration range of 3.1–50 μg/mL.
The MTT test was used, 3-(4,5-dimethylthiazol-2-yl)-2,5-diphenyl tetrazolium bromide), which is reduced to insoluble purple-blue formazan crystals precipitated by living cells. Cell viability assessed using the MTT assay reflects the activity of mitochondrial enzymes in treated cells compared to the control culture of untreated cells.
To assess the biocompatibility of the substances, a stable mouse fibroblast cell line, NCTC (clone 929), was grown in minimal essential medium (MEM) with 10% fetal bovine serum (FBS) and 2 mM L-glutamine, along with 100 U/mL penicillin, 100 µg/mL streptomycin, and 500 µg/mL neomycin. The concentration of the compounds used was 0.06 g/2 mL DMSO.
In cytotoxicity experiments, compound solutions were utilized at concentrations of 3.1 μg/mL, 6.25 μg/mL, 12.5 μg/mL, 25 μg/mL, and 50 μg/mL. The NCTC cell suspension was placed into 96-well culture plates with a concentration of 4 × 10^4 cells/mL and incubated at 37 °C for 24 h in a 5% CO2 humidified atmosphere. The compounds under study were placed in sets of three at varying concentrations ranging from 3.1 μg/mL to 50 μg/mL in every well, and the plates were then kept under standard conditions for 48 h. Cell viability was determined through the utilization of the MTT assay. Next, the MTT solution was removed, then isopropanol was added to solubilize the formazan crystals. The colored solution was then measured for absorbance at 570 nm using a Berthold Technologies, LB 940 microplate reader (Bad Wildbad, Germany). The outcomes were determined based on Formula (1) while considering that the recorded optical density is directly related to the number of viable cells in the cell culture being examined [35, 36]. % cell viability = (OD sample/OD control) × 100%(1)
For each tested compound, a graph representing percentage cell viability versus concentrations (in the range 3.1–50 µg/mL) was obtained. Then, the IC50 value was calculated by using ED50 plus V1.0 software.

[6] = test system: NCTC (clone 929) mouse fibroblast cells; test: MTT cell viability / cytotoxicity on normal fibroblasts; format: cell-based; conditions: Mus musculus, NCTC clone 929; NCTC normal fibroblasts, MTT, 48 h
Excerpt: (§2) Merck chemicals were utilized.
(§3) Untreated cells were used as control, considered 100% viable cells.

[7] = as above; format: cell-based, mouse; conditions: mouse, read-out: Cell viability on NCTC cells (%)
Excerpt: as §2, §3

[8] = test system: Enterococcus faecalis ATCC29212; test: Antibiofilm assay (crystal violet), MBIC; format: cell-based; conditions: Enterococcus faecalis, ATCC29212, 24 h, 37 °C, read-out: Minimum biofilm inhibition concentration (MBIC), Enterococcus faecalis ATCC29212
In short: (§4)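 Biofilms grown in nutrient broth with test substances for 24 h at 37 °C. After rinsing with sterile physiological water, attached cells were fixed 5 min with methanol, then crystal violet stained.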

[9] = test system: Staphylococcus aureus ATCC25923; test: Antibiofilm assay (crystal violet), MBIC; format: cell-based; conditions: 24 h, 37 °C; for minimal effective concentration: Staphylococcus aureus, ATCC25923, read-out: Minimum biofilm inhibition concentration (MBIC), Staphylococcus aureus ATCC25923
In short: as §4

[10] = test system: Escherichia coli ATCC25922; test: Antibiofilm assay (crystal violet), MBIC; format: cell-based; conditions: 37 °C; for Minimum biofilm inhibition concentration (MBIC), Escherichia coli ATCC25922: 24 h; for minimal effective concentration: Escherichia coli, ATCC25922, 24 h, read-out: Minimum biofilm inhibition concentration (MBIC), Escherichia coli ATCC25922
In short: as §4

[11] = test system: Pseudomonas aeruginosa ATCC27853; test: Antibiofilm assay (crystal violet), MBIC; format: cell-based; conditions: 37 °C; for Minimum biofilm inhibition concentration (MBIC), Pseudomonas aeruginosa ATCC27853: 24 h; for minimal effective concentration: Pseudomonas aeruginosa, ATCC27853, 24 h, read-out: Minimum biofilm inhibition concentration (MBIC), Pseudomonas aeruginosa ATCC27853
In short: as §4

[12] = test system: Enterococcus faecalis ATCC29212; test: MIC by serial microdilution in liquid medium; format: cell-based; conditions: Enterococcus faecalis, ATCC29212; 24 h, 37 °C; read-out: Minimum inhibitory concentration, Enterococcus faecalis ATCC29212
In short: (§5)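 Twofold serial dilutions from a DMSO stock (10 mg/mL) in Tryptone Soy Broth, inoculated with 10 µL of a 10^6 CFU/mL suspension, incubated 24 h at 37 °C. Growth judged visually and by OD 620 nm; MIC (µg/mL) is the lowest concentration without growth, run in triplicate.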

[13] = test system: Staphylococcus aureus ATCC25923; test: MIC by serial microdilution in liquid medium; format: cell-based; conditions: 24 h, 37 °C; for MIC: Staphylococcus aureus, ATCC25923, read-out: Minimum inhibitory concentration, Staphylococcus aureus ATCC25923
In short: as §5

[14] = test system: Escherichia coli ATCC25922; test: MIC by serial microdilution in liquid medium; format: cell-based; conditions: 24 h, 37 °C; for MIC: Escherichia coli, ATCC25922, read-out: Minimum inhibitory concentration, Escherichia coli ATCC25922
In short: as §5

[15] = test system: Pseudomonas aeruginosa ATCC27853; test: MIC by serial microdilution in liquid medium; format: cell-based; conditions: Pseudomonas aeruginosa, ATCC27853; 24 h, 37 °C; read-out: Minimum inhibitory concentration, Pseudomonas aeruginosa ATCC27853
In short: as §5

SMILES | Qualitative antimicrobial activity, Enterococcus faecalis ATCC29212 [1] | Qualitative antimicrobial activity, Staphylococcus aureus ATCC25923 [2] | Qualitative antimicrobial activity, Escherichia coli ATCC25922 [3] | Qualitative antimicrobial activity, Pseudomonas aeruginosa ATCC27853 [4] | viability at 3.1 µg/mL ([5]; HEp-2, 24 h) [%] | viability at 6.25 µg/mL ([5]; HEp-2, 24 h) [%] | viability at 12.5 µg/mL ([5]; HEp-2, 24 h) [%] | viability at 25 µg/mL ([5]; HEp-2, 24 h) [%] | viability at 50 µg/mL ([5]; HEp-2, 24 h) [%] | viability at 3.1 µg/mL ([5]; HEp-2, 48 h) [%] | viability at 6.25 µg/mL ([5]; HEp-2, 48 h) [%] | viability at 12.5 µg/mL ([5]; HEp-2, 48 h) [%] | viability at 25 µg/mL ([5]; HEp-2, 48 h) [%] | viability at 50 µg/mL ([5]; HEp-2, 48 h) [%] | IC50 ([5]; HEp-2, 48 h) [µg/mL] | IC50 [6] [µg/mL] | viability at 24 h, 3.1 µg/mL [7] [%] | viability at 48 h, 3.1 µg/mL [7] [%] | viability at 24 h, 6.25 µg/mL [7] [%] | viability at 48 h, 6.25 µg/mL [7] [%] | also measured
Cc1nn(CN(Cn2nc(C)c([N+](=O)[O-])c2C)c2ccc(F)cc2)c(C)c1[N+](=O)[O-] [5a, N,N-bis-[(3,5-dimetyl-4-nitro-1H-pyrazol-1-yl)-methyl]-4-fluoroaniline] | - | + | + | + | 90.8 ± 1.1 | 104.4 ± 0.32 | 96.6 ± 3.1 | 82.7 ± 1.85 | 57.2 ± 1.13 | 90.1 ± 2.22 | 85.2 ± 3.13 | 80.1 ± 1.54 | 67.4 ± 3.23 | 38.8 ± 0.71 | 40.5 ± 0.79 (≈ 97.1 µM) | > 50 | 97.7 ± 1.8 | 87.19 ± 0.7 | 98.3 ± 2.22 | 88.7 ± 2.4 | viability at 24 h, 12.5 µg/mL [7]: 100 ± 2.07%; viability at 48 h, 12.5 µg/mL [7]: 98.2 ± 2.04%; viability at 24 h, 25 µg/mL [7]: 97.4 ± 2.4%; viability at 48 h, 25 µg/mL [7]: 93.7 ± 1.17%; viability at 24 h, 50 µg/mL [7]: 88.6 ± 2.66%; viability at 48 h, 50 µg/mL [7]: 92.5 ± 1.32%; melting point: 78 to 80 °C; minimal effective concentration [8]: 930 ± 0.14 µg/mL; Minimum biofilm inhibition concentration (MBIC), Staphylococcus aureus ATCC25923 [9]: 230 ± 0.05 µg/mL; minimal effective concentration [9]: 230 µg/mL; Minimum biofilm inhibition concentration (MBIC), Escherichia coli ATCC25922 [10]: 460 ± 0.12 µg/mL; minimal effective concentration [10]: 460 µg/mL; Minimum biofilm inhibition concentration (MBIC), Pseudomonas aeruginosa ATCC27853 [11]: 460 ± 0.12 µg/mL; minimal effective concentration [11]: 460 µg/mL; MIC [12]: 930 ± 0.06 µg/mL (≈ 2230 µM); Minimum inhibitory concentration, Staphylococcus aureus ATCC25923 [13]: 460 ± 0.03 µg/mL (≈ 1100 µM); MIC [13]: 460 µg/mL (≈ 1100 µM); Minimum inhibitory concentration, Escherichia coli ATCC25922 [14]: 460 ± 0.06 µg/mL (≈ 1100 µM); MIC [14]: 460 µg/mL (≈ 1100 µM); MIC [15]: 460 ± 0.04 µg/mL (≈ 1100 µM)
Cc1nn(CN(Cn2nc(C)c([N+](=O)[O-])c2C)c2ccc(I)cc2)c(C)c1[N+](=O)[O-] [5d, N,N-bis-[(3,5-dimetyl-4-nitro-1H-pyrazol-1-yl)-methyl]-4-iodoaniline] | - | - | - | - | 88.45 ± 0.28 | 89.15 ± 0.73 | 91.41 ± 0.69 | 89.86 ± 0.48 | 89.86 ± 0.16 | 96.17 ± 0.13 | 78.61 ± 0.67 | 61.51 ± 0.34 | 45.75 ± 0.33 | 20.8 | 26.61 ± 0.11 (≈ 50.7 µM) | > 50 | 103 ± 1.49 | 93.58 ± 0.71 | 108 ± 2.4 | 103 | viability at 24 h, 12.5 µg/mL [7]: 106 ± 2.05%; viability at 48 h, 12.5 µg/mL [7]: 102 ± 3.03%; viability at 24 h, 25 µg/mL [7]: 98.4 ± 3.87%; viability at 48 h, 25 µg/mL [7]: 95.8 ± 2.12%; viability at 24 h, 50 µg/mL [7]: 83 ± 2.9%; viability at 48 h, 50 µg/mL [7]: 88.3 ± 1.55%; minimal effective concentration [8]: 1870 ± 0.15 µg/mL; minimal effective concentration [9]: 930 ± 0.15 µg/mL; minimal effective concentration [10]: 1870 ± 0.15 µg/mL; minimal effective concentration [11]: 930 ± 0.15 µg/mL; MIC [12]: 1870 ± 0.05 µg/mL (≈ 3560 µM); MIC [13]: 1870 ± 0.07 µg/mL (≈ 3560 µM); MIC [14]: 1870 ± 0.04 µg/mL (≈ 3560 µM); MIC [15]: 1870 ± 0.04 µg/mL (≈ 3560 µM)
Cc1nn(CN(Cn2nc(C)c([N+](=O)[O-])c2C)c2ccc(Cl)cc2)c(C)c1[N+](=O)[O-] [5b, N,N-bis-[(3,5-dimetyl-4-nitro-1H-pyrazol-1-yl)-methyl]-4-chloroaniline] | + | + | + | + | 105 ± 1.52 | 104 ± 2.25 | 102 ± 3.76 | 90.8 ± 2.84 | 65.3 ± 2.02 | 110 ± 1.25 | 94.7 ± 3.8 | 87.1 ± 0.92 | 74.8 ± 0.33 | 54.6 ± 1.17 | 26.6 to 47.3 (≈ 61.3 to 109 µM) | 29.8 ± 0.32 (≈ 68.7 µM) | 99.1 ± 3.42 | 100 ± 2.53 | 103 ± 3.06 | 94.9 ± 2.14 | IC50 µg/mL on HEp-2 Cells 48 h ([5]; HEp-2 epithelial tumor cells, MTT, 48 h): >50 µg/mL; viability at 24 h, 12.5 µg/mL [7]: 98.8 ± 3.47%; viability at 48 h, 12.5 µg/mL [7]: 84 ± 3.77%; viability at 24 h, 25 µg/mL [7]: 70 ± 2.51%; viability at 48 h, 25 µg/mL [7]: 55.2 ± 1.6%; viability at 24 h, 50 µg/mL [7]: 48.6 ± 1.35%; viability at 48 h, 50 µg/mL [7]: 28.1 ± 0.35%; melting point: 132 to 134 °C; Minimum biofilm inhibition concentration (MBIC), Staphylococcus aureus ATCC25923 [9]: 460 ± 0.01 µg/mL; minimal effective concentration [9]: 460 µg/mL; Minimum biofilm inhibition concentration (MBIC), Escherichia coli ATCC25922 [10]: 460 ± 0.03 µg/mL; minimal effective concentration [10]: 460 µg/mL; Minimum biofilm inhibition concentration (MBIC), Pseudomonas aeruginosa ATCC27853 [11]: 460 ± 0.51 µg/mL; minimal effective concentration [11]: 460 µg/mL; MIC [12]: 460 ± 0.54 µg/mL (≈ 1060 µM); Minimum inhibitory concentration, Staphylococcus aureus ATCC25923 [13]: 460 ± 0.01 µg/mL (≈ 1060 µM); MIC [13]: 460 µg/mL (≈ 1060 µM); Minimum inhibitory concentration, Escherichia coli ATCC25922 [14]: 460 ± 0.27 µg/mL (≈ 1060 µM); MIC [14]: 460 µg/mL (≈ 1060 µM); MIC [15]: 460 ± 0.58 µg/mL (≈ 1060 µM)
